From ChEMBL document CHEMBL4715771 (Bioorg Med Chem, 2016)

Key:
MDA-MB-231 = experiment: Antiproliferative activity against triple-negative human MDA-MB-231 cells overexpressing c-Met assessed as inhibition of cell proliferation measured after 72 hrs by MTT assay; assay type: functional, cell-based; details: MDA-MB-231, 72 h
MDA-MB-468 = experiment: Antiproliferative activity against triple-negative human MDA-MB-468 cells overexpressing c-Met assessed as inhibition of cell proliferation measured after 72 hrs by MTT assay; assay type: functional, cell-based; details: MDA-MB-468, 72 h
[1] = molecular target: Hepatocyte growth factor receptor (Homo sapiens, UniProt P08581); experiment: Inhibition of c-MET kinase domain (unknown origin) using Tyr6 peptide as substrate measured after 1 hr in presence of ATP by Z'-lyte kinase assay
Chain of Hepatocyte growth factor receptor (P08581 whole entry, the tested form may be a part): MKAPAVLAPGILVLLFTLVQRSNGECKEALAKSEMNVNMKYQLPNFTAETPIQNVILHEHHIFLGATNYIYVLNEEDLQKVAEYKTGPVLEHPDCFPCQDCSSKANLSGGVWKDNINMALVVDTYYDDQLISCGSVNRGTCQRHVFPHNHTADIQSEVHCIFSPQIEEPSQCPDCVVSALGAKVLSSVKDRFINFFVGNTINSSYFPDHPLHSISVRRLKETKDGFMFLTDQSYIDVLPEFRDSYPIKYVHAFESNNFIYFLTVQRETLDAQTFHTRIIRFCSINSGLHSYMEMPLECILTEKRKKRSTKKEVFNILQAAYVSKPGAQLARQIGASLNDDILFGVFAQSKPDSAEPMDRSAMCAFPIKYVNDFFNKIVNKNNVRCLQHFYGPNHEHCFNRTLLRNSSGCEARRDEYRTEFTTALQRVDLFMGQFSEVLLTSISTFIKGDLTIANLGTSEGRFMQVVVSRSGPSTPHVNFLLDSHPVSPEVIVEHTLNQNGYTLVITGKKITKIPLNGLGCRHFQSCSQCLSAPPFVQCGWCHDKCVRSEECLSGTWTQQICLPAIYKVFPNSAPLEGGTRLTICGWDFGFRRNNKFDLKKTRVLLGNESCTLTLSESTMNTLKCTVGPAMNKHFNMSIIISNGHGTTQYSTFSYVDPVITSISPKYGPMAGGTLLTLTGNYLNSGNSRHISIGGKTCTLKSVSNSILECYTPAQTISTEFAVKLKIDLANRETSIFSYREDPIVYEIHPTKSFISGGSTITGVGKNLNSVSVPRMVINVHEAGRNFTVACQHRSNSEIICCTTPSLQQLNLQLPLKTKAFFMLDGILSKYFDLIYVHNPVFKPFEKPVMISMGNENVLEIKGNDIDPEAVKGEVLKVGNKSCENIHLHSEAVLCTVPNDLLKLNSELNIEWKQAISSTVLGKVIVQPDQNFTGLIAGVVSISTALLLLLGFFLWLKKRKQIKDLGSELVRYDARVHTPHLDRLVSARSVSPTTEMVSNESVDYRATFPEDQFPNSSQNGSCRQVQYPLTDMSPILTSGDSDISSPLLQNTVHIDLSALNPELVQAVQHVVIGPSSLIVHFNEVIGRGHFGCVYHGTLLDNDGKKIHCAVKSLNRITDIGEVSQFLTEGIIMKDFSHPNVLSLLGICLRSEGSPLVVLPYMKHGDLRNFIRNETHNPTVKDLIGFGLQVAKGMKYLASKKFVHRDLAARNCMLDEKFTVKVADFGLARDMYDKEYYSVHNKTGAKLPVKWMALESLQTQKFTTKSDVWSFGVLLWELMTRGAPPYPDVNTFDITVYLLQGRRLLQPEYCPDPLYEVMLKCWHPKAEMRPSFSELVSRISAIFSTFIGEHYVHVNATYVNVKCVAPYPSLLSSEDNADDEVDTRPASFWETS

SMILES	IC50 (MDA-MB-231) [µM]	IC50 (MDA-MB-468) [µM]	IC50 [1] [µM]
C/C1=C\[C@H](OC(=O)Nc2ccccc2F)C[C@](C)(O)/C=C/[C@H](C(C)C)CC/C(C)=C/CC1	16.1	17.8	
C/C1=C\[C@H](OC(=O)Nc2ccccc2Cl)C[C@](C)(O)/C=C/[C@H](C(C)C)CC/C(C)=C/CC1	13.7	14.5	
C/C1=C\[C@H](OC(=O)Nc2cccc(C)c2)C[C@](C)(O)/C=C/[C@H](C(C)C)CC/C(C)=C/CC1	27.6	27.9	
C/C1=C\[C@H](OC(=O)Nc2ccc(Cl)cc2Cl)C[C@](C)(O)/C=C/[C@H](C(C)C)CC/C(C)=C/CC1	10.4	15.4	
C/C1=C\[C@H](OC(=O)NC2CCCCC2)C[C@](C)(O)/C=C/[C@H](C(C)C)CC/C(C)=C/CC1	38.2	39.6	

The next compounds have a lower IC50 (MDA-MB-231) than those just listed; values first:

IC50 (MDA-MB-231) [µM]	IC50 (MDA-MB-468) [µM]	IC50 [1] [µM]	SMILES
8.9	11.6		C/C1=C\[C@H](OC(=O)Nc2ccc(C(F)(F)F)cc2)C[C@](C)(O)/C=C/[C@H](C(C)C)CC/C(C)=C/CC1
9.1	10.6	3.4	C/C1=C\[C@H](OC(=O)Nc2cccc(Cl)c2)C[C@](C)(O)/C=C/[C@H](C(C)C)CC/C(C)=C/CC1
8.5	10.7		C/C1=C\[C@H](OC(=O)Nc2ccc(Cl)c(Cl)c2)C[C@](C)(O)/C=C/[C@H](C(C)C)CC/C(C)=C/CC1
4.9	5.8	1.8	C/C1=C\[C@H](OC(=O)Nc2cccc(C(F)(F)F)c2)C[C@](C)(O)/C=C/[C@H](C(C)C)CC/C(C)=C/CC1
